Assay [1] deals with T1, aldose reductase (Bos taurus, UniProt P16116).
T1 construct: preparation of the enzyme from bovine lens; from tissue; host or cells: bovine lens
The experiment in a line: in vitro aldose reductase inhibition (modified Hayman and Kinoshita procedure, enzyme from bovine lens). The format is biochemical. As to conditions: for inhibition at 0.04 µM: 4 × 10^-8 M; for inhibition at 1 µM / inhibition at 0.1 µM: read-out: % inhibition In Vitro. How it is done:
Only two minor reagent changes were made: (a) the rinsing mixture was an aqueous 5% (w/v) trichloroacetic acid solution and (b) the stock solution was prepared by dissolving 25 mg of dulcitol in 100 ml of an aqueous trichloroacetic acid solution. [N.B.: For each experiment the average value found in the tissue from rats fed the glucose diet was subtracted from the individual values found in the corresponding tissue in galactose-fed rats to obtain the amount of polyol accumulated.] […] In the present case the procedure of Hayman and Kinoshita was modified in that the final chromatography step was omitted in the preparation of the enzyme from bovine lens.

In assay [2] the test system is Galactitol Accumulation. The experiment in a line: lowering of galactitol (dulcitol) accumulation in tissues of galactosemic rats. The assay is classed as in vivo, rat (Sprague-Dawley). As to conditions: four days, vs untreated galactosemic rats; for % Lowering Galactitol Accumulation In Vivo, D: diaphragm. The text has this:
The aldose reductase inhibiting property of the compounds of this invention and the utilization of the compounds in preventing, diminishing and alleviating diabetic complications are demonstrable in experiments using galactosemic rats, see Dvornik et al., Science, 182, 1146 (1973). Such experiments are exemplified hereinbelow after the listing of the following general comments pertaining to these experiments:
(a) Four or more groups of six male rats, 50-70 g, Sprague-Dawley strain, were used. The first group, the control group, was fed a mixture of laboratory chow (rodent Laboratory Chow, Purina) and glucose at 20% (w/w %) concentration. An untreated galactosemic group was fed a similar diet in which galactose was substituted for glucose. The third group was fed a diet prepared by mixing a given amount of the test compound with the galactose containing diet. The concentration of galactose in the diet of the treated groups was the same as that for the untreated galactosemic group.
(b) After four days, the animals were killed by euthanization. Both the lens and sciatic nerve were removed, weighed and stored frozen for polyol determination.
(c) The polyol determination was performed by a modification of the procedure of M. Kraml and L. Cosyns, Clin. Biochem., 2, 373 (1969). Only two minor reagent changes were made: (a) the rinsing mixture was an aqueous 5% (w/v) trichloroacetic acid solution and (b) the stock solution was prepared by dissolving 25 mg of dulcitol in 100 ml of an aqueous trichloroacetic acid solution. [N.B.: For each experiment the average value found in the tissue from rats fed the glucose diet was subtracted from the individual values found in the corresponding tissue in galactose-fed rats to obtain the amount of polyol accumulated.] The aldose reductase inhibiting effects of the compounds of formula (I) were also tested by employing an in vitro testing procedure similar to that described by S. Hayman and J. H. Kinoshita, J. Biol. Chem., 240, 877 (1965). In the present case the procedure of Hayman and Kinoshita was modified in that the final chromatography step was omitted in the preparation of the enzyme from bovine lens.
The figures under L, N, and D represent the percentage decrease of dulcitol accumulation in the tissues of the lens, sciatic nerve, and diaphragm, respectively, for treated rats as compared to untreated rats.

Like-named read-outs stand apart in the source and are kept apart here.

The term inhibition denotes the drop in the measured response relative to a control, in per cent. Turning to `O=C1CC2(C(=O)N1)C(=O)N(Cc1nc3ccccc3s1)C(=O)c1ccccc12` (centres unmarked) [R^1=H, R^3=H, 2-(2-Benzothiazolylmethyl)spiro[isoquinoline-4(1H),3'-pyrrolidine)-1,2',3,5'(2H)-tetrone], 0.04 µM produced 81% inhibition in assay [1]. For the same compound, the inhibition at 1 µM in assay [1] (10^-6 M) came out at 97%. The inhibition at 0.1 µM in assay [1] (10^-7 M) was determined as 92%.
On to `O=C1CC2(C(=O)N1)C(=O)N(Cc1nc3cc(C(F)(F)F)ccc3s1)C(=O)c1ccc(F)cc12` (centres unmarked) [R^1=F, R^3=CF3, 6-Fluoro-2-[[5-(trifluoromethyl)-2-benzothiazolyl]methyl]spiro-[isoquinoline-4(1H),3'-pyrrolidine]-1,2',3,5'(2H)-tetrone], for which, in assay [1], the inhibition at 0.04 µM worked out at 92% and the inhibition at 0.1 µM amounted to 94%. In addition, in assay [1] (10^-6 M), the inhibition at 1 µM worked out at 95%. For the same compound, the “% Lowering Galactitol Accumulation In Vivo, D” value in assay [2] (1.0 mg/kg/day in diet) stood at 85%.
With `O=C1CC2(C(=O)N1)C(=O)N(Cc1nc3cc(C(F)(F)F)ccc3s1)C(=O)c1ccccc12` (centres unmarked) [R^1=H, R^3=CF3, 2-[[5-(Trifluoromethyl)-2-benzothiazolyl]methyl]spiro[isoquinoline-4-(1H),3'-pyrrolidine]-1,2',3,5'(2H)-tetrone], in assay [1], the inhibition at 0.04 µM stood at 90% and the inhibition at 0.1 µM came to 93%. The inhibition at 1 µM in assay [1] (10^-6 M) was 95%. Moreover, in assay [2] (0.5 mg/kg/day in diet), the “% Lowering Galactitol Accumulation In Vivo, D” value is listed as 94%. Besides, in assay [2] (1.1 mg/kg/day in diet), the “% Lowering Galactitol Accumulation In Vivo, D” value is reported as 89%. In assay [2] (lens, 1.1 mg/kg/day in diet), the “% Lowering Galactitol Accumulation In Vivo, L” value is 22%.
For the compound `O=C1CC2(C(=O)N1)C(=O)N(Cc1nc3ccccc3s1)C(=O)c1ccc(F)cc12` (centres unmarked) [R^1=F, R^3=H, 2-(2-Benzothiazolylmethyl)-6-fluorospiro[isoquinoline-4(1H),3'-pyrrolidine]-1,2',3,5'(2H)-tetrone], in assay [1], the inhibition at 0.04 µM was found to be 91%, the inhibition at 0.1 µM turned out to be 94% and the inhibition at 1 µM was 96%. In assay [2] (4.6 mg/kg/day in diet), the “% Lowering Galactitol Accumulation In Vivo, D” value was found to be 93%.
